Earlier results, collected in PubChem BioAssay AID1259409 (Chemical Carcinogenesis Research Information System (CCRIS), 2018).

Tested on: rodent chemically induced tumor inhibition, incidence and multiplicity
Test: CCRIS tumor inhibitor studies

## COc1ccc(CCN(C)CCCC(C#N)(c2ccc(OC)c(OC)c2)C(C)C)cc1OC (stereo not drawn)
Carcinogen: 7,12-DIMETHYLBENZ[A]ANTHRACENE, 57-97-6, Dose [Inhibitor]: 0, 3.5 MG/KG/D IN DRINKING WATER (STUDY DURATION: 20 WK), Route [Inhibitor]: ORAL, Species: RAT, Strain/Sex: SPRAGUE-DAWLEY/FEMALE, Target Tissue: Type of Lesion: MAMMARY GLAND: TUMOR, Dose [Carcinogen]: 50 MG/KG ONCE, Promoter: NONE USED
  tumour outcome (control, treated, inhibition, significance): 9/20 (45%), 3/20(15%), 67%, p< 0.05
Carcinogen: 7,12-DIMETHYLBENZ[A]ANTHRACENE, 57-97-6, Dose [Inhibitor]: 0, 2 UMOL 1/WK FOR 21 WK APPLIED 1 HR POST EACH PROMOTER DOSE (STUDY DURATION: 21 WK), Route [Inhibitor]: DERMAL, Species: MOUSE, Strain/Sex: SENCAR/FEMALE, Target Tissue: Type of Lesion: SKIN: PAPILLOMA, Dose [Carcinogen]: 25 NMOL ONCE, Promoter: CHRYSAROBIN, 491-58-7
  tumour outcome (control, treated, inhibition, significance): 90%, 82%, 9%, not significant
Carcinogen: N-NITROSOMORPHOLINE, 59-89-2, Dose [Inhibitor]: 0, 20 MG/KG BW IN 0.9% SALINE 1/2 D FOR DURATION OF STUDY (STUDY DURATION: 16 WK), Route [Inhibitor]: INTRAPERITONEAL, Species: RAT, Strain/Sex: SPRAGUE-DAWLEY/MALE, Target Tissue: Type of Lesion: LIVER: HEPATOCELLULAR CARCINOMA, Dose [Carcinogen]: 175 MG/L IN DRINKING WATER FOR 8 WK, Promoter: NONE USED
  tumour outcome (control, treated, inhibition, significance): 10/20 (50%), 3/20 (15%), 70%, p<0.05
